Reference: ChEMBL document CHEMBL1201862, “PubChem BioAssay data set” (2004)
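Results reflect a 48-hour exposure of cells in 96-well plates to compound at five concentrations. At the GI50, growth is halved.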 Activity calls are given as the source filed them. No stated cut-off is given here; in the data, active = GI50 up to about 1.1 µM and inactive = higher.

How the values were obtained:
Test in all cases: NCI-60 cell line screen, 48 h
EKVX = tested on: EKVX
HCT-116 = tested on: HCT-116
HT-29 = tested on: HT-29
MDA-MB-231 = tested on: MDA-MB-231
MDA-MB-435 = tested on: MDA-MB-435
MOLT-4 = tested on: MOLT-4
NCI-H23 = tested on: NCI-H23
OVCAR-8 = tested on: OVCAR-8
PC-3 = tested on: PC-3
RPMI-8226 = tested on: RPMI-8226
SF-295 = tested on: SF-295
SK-MEL-28 = tested on: SK-MEL-28
SK-MEL-2 = tested on: SK-MEL-2
SK-MEL-5 = tested on: SK-MEL-5
SNB-19 = tested on: SNB-19
SW-620 = tested on: SW-620
T47D = tested on: T47D
U-251 = tested on: U-251
UACC-257 = tested on: UACC-257
DLD-1 = tested on: DLD-1

Measured: GI50

NC(Cc1ccccc1)P(=O)(O)O (stereo not given)
inactive: EKVX > 100 µM | HCT-116 > 100 µM | HT-29 > 100 µM | MDA-MB-231 > 100 µM | MDA-MB-435 > 100 µM | MOLT-4 > 100 µM | NCI-H23 > 100 µM | OVCAR-8 > 100 µM | PC-3 > 100 µM | RPMI-8226 > 100 µM | SF-295 > 100 µM | SK-MEL-28 > 100 µM | SK-MEL-2 > 100 µM | SK-MEL-5 > 100 µM | SNB-19 > 100 µM | SW-620 > 100 µM | T47D > 100 µM | U-251 > 100 µM | UACC-257 > 100 µM

N#Cc1c(-c2ccco2)cc(-c2ccccc2)nc1O
inactive: DLD-1 > 100 µM | EKVX > 100 µM | HCT-116 > 100 µM | HT-29 > 100 µM | MOLT-4 > 100 µM | NCI-H23 > 100 µM | OVCAR-8 > 100 µM | RPMI-8226 > 100 µM | SF-295 > 100 µM | SK-MEL-28 > 100 µM | SK-MEL-5 > 100 µM | SNB-19 > 100 µM | SW-620 > 100 µM | U-251 > 100 µM | UACC-257 > 100 µM

CC1(C)C(=O)C2(C#N)CCC1C2 (stereo not given)
inactive: EKVX > 100 µM | HCT-116 > 100 µM | HT-29 > 100 µM | MDA-MB-231 > 100 µM | MDA-MB-435 > 100 µM | MOLT-4 > 100 µM | NCI-H23 > 100 µM | OVCAR-8 > 100 µM | PC-3 > 100 µM | RPMI-8226 > 76.9 µM | SF-295 > 100 µM | SK-MEL-28 > 100 µM | SK-MEL-2 > 100 µM | SK-MEL-5 > 100 µM | SNB-19 > 100 µM | SW-620 > 100 µM | T47D > 100 µM | U-251 > 100 µM | UACC-257 > 100 µM

COC1/C=C\OC2(C)Oc3c(C)c(O)c4c(O)c(c(CN(C)C)c(O)c4c3C2=O)NC(=O)/C(C)=C\C=C/C(C)C(O)C(C)C(O)C(C)C(OC(C)=O)C1C (stereo not given)
inactive: EKVX 12.5 µM | HCT-116 18.3 µM | HT-29 20.6 µM | MDA-MB-231 28.8 µM | MDA-MB-435 26.4 µM | MOLT-4 15.5 µM | NCI-H23 16 µM | OVCAR-8 30.6 µM | PC-3 23 µM | RPMI-8226 6.5 µM | SF-295 > 100 µM | SK-MEL-28 31.4 µM | SK-MEL-2 18.7 µM | SK-MEL-5 18.5 µM | SNB-19 42.9 µM | SW-620 12.2 µM | T47D 29 µM | U-251 19.7 µM | UACC-257 22.4 µM

O=C1c2ccoc2C(=O)c2oc(=O)ccc21
inactive: DLD-1 18.7 µM | EKVX 20.8 µM | HCT-116 5.31 µM | HT-29 36.4 µM | NCI-H23 2 µM | OVCAR-8 6.35 µM | RPMI-8226 3.67 µM | SF-295 17.5 µM | SK-MEL-28 5.43 µM | SK-MEL-2 6.59 µM | SK-MEL-5 1.7 µM | SNB-19 16 µM | SW-620 4.23 µM | U-251 8.15 µM | UACC-257 7.33 µM

N/N=C1\C(=O)N(CCc2ccccc2)C(=O)C1C(=O)NCCc1ccccc1 (stereo not given)
inactive: DLD-1 > 100 µM | EKVX > 100 µM | HCT-116 > 100 µM | HT-29 > 100 µM | MOLT-4 > 100 µM | NCI-H23 > 100 µM | RPMI-8226 > 100 µM | SF-295 > 100 µM | SK-MEL-28 > 100 µM | SK-MEL-2 > 100 µM | SNB-19 > 100 µM | SW-620 > 100 µM | U-251 > 100 µM | UACC-257 > 100 µM

CC(C)(Oc1ccc(/C=C/C(=O)c2ccc(Cl)cc2)cc1)C(=O)Nc1c(Cl)cccc1Cl
inactive: DLD-1 13.7 µM | EKVX 57.8 µM | HCT-116 6.03 µM | HT-29 13.3 µM | MOLT-4 6.32 µM | NCI-H23 17.3 µM | OVCAR-8 14.1 µM | SF-295 25.8 µM | SK-MEL-28 16.1 µM | SK-MEL-2 42.3 µM | SK-MEL-5 18.2 µM | SNB-19 33.8 µM | SW-620 12.8 µM | U-251 12.5 µM | UACC-257 30.9 µM

O=C1c2ccccc2C(=O)N1c1ccc(OCCN2CCCCC2)cc1
inactive: EKVX > 100 µM | HCT-116 > 100 µM | HT-29 > 100 µM | MDA-MB-231 > 100 µM | MDA-MB-435 > 100 µM | MOLT-4 > 100 µM | NCI-H23 > 100 µM | OVCAR-8 > 100 µM | PC-3 > 100 µM | RPMI-8226 > 100 µM | SF-295 > 100 µM | SK-MEL-28 > 100 µM | SK-MEL-2 > 100 µM | SK-MEL-5 > 100 µM | SNB-19 > 100 µM | SW-620 > 100 µM | T47D > 100 µM | U-251 > 100 µM | UACC-257 > 100 µM
